# What was measured:
# IgE antibody = assay: Inhibitory effect on production of IgE antibody, oral, X-ray exposed mice immunized with DNP-KLH; assay type: in vivo, mouse (SJL/J strain); settings: mouse
# Protocol: Inhibitory effect on production of IgE antibody SJL/J strain mice (8-week-old) were exposed to X-rays of 400 R, and concurrently injected intraperitoneally a mixture of 1 μg of Keyhole Limpet Hemocyanin (KLH) with 4 mg of an aluminum hydroxide gel. One week later, the mice were intraperitoneally administered with a mixture of 1 μg of dinitrophenyl group-binding KLH (DNP-KLH) with 4 mg of an aluminum hydroxide gel. From the next day of the immunization with DNP-KLH, each of the mice was forced to be orally administered by using gastric catherter with a test compound suspended in a 1% gum arabic aqueous solution. The mice in a control group were administered with only the gum arabic solution.
# The serum was sampled from each of the mice treated above, and the amount of IgE therein was measured by the "Rat 48-hour PCA test" similarly as described in Experiment 1. The amount of IgE was expressed in terms of the maximum dilution of the serum by which a cutaneous reaction appeared in an area with a diameter of 5 mm or more to be observed.
# The percent inhibition was indicated as the ratio of the amount of IgE of the test group to that of the control group.
# In Table 2, inhibition efficiencies of 25-50%, 50-75% and 75% or more are represented by ratings ++, +++ and ++++, respectively. The numbers given to the test compounds correspond to the Example Nos.
# [1] = tested on: passive cutaneous anaphylaxis (PCA); assay: Inhibitory effect on passive cutaneous anaphylaxis (PCA), oral; assay type: in vivo, rat (SD/JCL strain); settings: rat
# Protocol: Rat antiserum to egg albumin was prepared by the method of I. Mota, "Immunology" 7, 681-699 (1964), and 400 folds diluted. The diluted antiserum (0.1 ml) was injected into dorsal skin of rats (SD/JCL strain, male, 9-week-old) to subject them to passive immunization.
# Forty-eight to seventy-two hours later, each rat was orally given a compound of this invention suspended in a 1% gum arabic aqueous solution. Five minutes after the administration, each rat was intravenously injected at its tail with 1 ml of a mixture containing equal volumes of a 0.5% solution of egg albumin in saline and 0.5% solution of Evans Blue in saline. Thirty minutes later, each rat was beheaded and the extravasated dye was quantitatively measured by the method of Katayama et al., "Microbiol. Immunol" 22, 89-101 (1978).
# The percent inhibition was calculated by comparing the amount of Evans Blue leaking in the test groups with that in the control group in which a gum arabic aqueous solution containing no test compound was administered to the test animal.
# In Table 1, inhibition efficiencies of 30 to 50%, 51-70%, 71-90% and 91% or more are represented by the ratings +, ++, +++ and ++++, respectively. The numbers given to the test compounds correspond to the Example Nos.
Compound,Percent Inhibition (IgE antibody; dose 5 mg/kg),Percent Inhibition ([1]; dose 10 mg/kg),other results
"CNC(=O)c1cc(C(=O)OCCO)cc(C(=O)NC)n1 [Compound 8, 2-hydroxyethyl 2,6-bis(N-methylcarbamoyl)pyridine-4-carboxylate]",++ (25-50%),++ (51-70%),–
CNC(=O)c1cc(C(=O)OCCOC)cc(C(=O)NC)n1 [Compound 7],–,++ (51-70%),–
"CCOC(=O)c1cc(C(=O)NC)nc(C(=O)NC)c1 [Compound 1, ethyl 2,6-bis(N-methylcarbamoyl)pyridine-4-carboxylate]",++++ (75% or more),–,Percent Inhibition ([1]; dose 5 mg/kg): ++++ (91% or more)
CCCOC(=O)c1cc(C(=O)NC)nc(C(=O)NC)c1 [Compound 4],–,++ (51-70%),–
"CCOC(=O)c1cc(C(=O)NC)nc(C(=O)NC)c1N [Compound 10, ethyl 3-amino-2,6-bis(N-methylcarbamoyl)pyridine-4-carboxylate]",–,+++ (71-90%),Percent Inhibition (IgE antibody; dose 10 mg/kg): ++++ (75% or more)
"CCOC(=O)c1cc(C(=O)NC)nc(C(=O)NC)c1NC [Compound 11, ethyl 3-methylamino-2,6-bis(N-methylcarbamoyl)pyridine-4-carboxylate]",++++ (75% or more),++++ (91% or more),–
"CNC(=O)c1cc(C(=O)O)cc(C(=O)NC)n1 [Compound 2, 2,6-bis(N-methylcarbamoyl)pyridine-4-carboxylic acid]",–,–,Percent Inhibition (IgE antibody; dose 50 mg/kg): ++++ (75% or more); Percent Inhibition ([1]; dose 50 mg/kg): + (30 to 50%)
CNC(=O)c1cc(C(=O)OC(C)C)cc(C(=O)NC)n1 [Compound 5],+++ (50-75%),–,–

# Source: US4691018A, “Pyridine derivatives and their use as anti-allergic agents” (Chugai Seiyaku Kabushiki Kaisha, priority 1985, dated 1987)
